Format in all cases: cell-based
In test [1] the target is T1, proteins of HEK293T cells transiently overexpressing caspase-6 (Homo sapiens, UniProt P27824).
T1 sequence (P27824 21-592): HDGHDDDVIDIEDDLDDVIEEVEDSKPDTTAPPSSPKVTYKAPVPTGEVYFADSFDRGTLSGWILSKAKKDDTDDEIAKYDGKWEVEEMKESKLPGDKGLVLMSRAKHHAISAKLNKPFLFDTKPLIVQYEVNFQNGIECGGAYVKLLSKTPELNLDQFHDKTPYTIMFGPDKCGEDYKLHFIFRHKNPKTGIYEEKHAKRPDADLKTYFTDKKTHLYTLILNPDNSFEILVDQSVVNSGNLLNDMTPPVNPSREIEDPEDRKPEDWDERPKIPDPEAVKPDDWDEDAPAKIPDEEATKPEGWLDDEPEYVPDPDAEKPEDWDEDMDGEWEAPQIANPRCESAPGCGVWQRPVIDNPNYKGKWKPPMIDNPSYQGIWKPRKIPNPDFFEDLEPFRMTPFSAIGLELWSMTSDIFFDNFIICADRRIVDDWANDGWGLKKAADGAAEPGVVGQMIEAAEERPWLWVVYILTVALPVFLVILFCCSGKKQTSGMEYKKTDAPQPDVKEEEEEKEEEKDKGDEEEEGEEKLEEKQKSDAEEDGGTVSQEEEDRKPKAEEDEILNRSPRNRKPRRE
As to conditions: protein CANX (P27824).

Test [2] deals with proteins of HEK293T cells transiently overexpressing caspase-6 (Homo sapiens, UniProt P13647). As to conditions: Probe; protein KRT5 P13647.
Chain of proteins of HEK293T cells transiently overexpressing caspase-6 (Homo sapiens, UniProt P13647) (P13647 whole entry): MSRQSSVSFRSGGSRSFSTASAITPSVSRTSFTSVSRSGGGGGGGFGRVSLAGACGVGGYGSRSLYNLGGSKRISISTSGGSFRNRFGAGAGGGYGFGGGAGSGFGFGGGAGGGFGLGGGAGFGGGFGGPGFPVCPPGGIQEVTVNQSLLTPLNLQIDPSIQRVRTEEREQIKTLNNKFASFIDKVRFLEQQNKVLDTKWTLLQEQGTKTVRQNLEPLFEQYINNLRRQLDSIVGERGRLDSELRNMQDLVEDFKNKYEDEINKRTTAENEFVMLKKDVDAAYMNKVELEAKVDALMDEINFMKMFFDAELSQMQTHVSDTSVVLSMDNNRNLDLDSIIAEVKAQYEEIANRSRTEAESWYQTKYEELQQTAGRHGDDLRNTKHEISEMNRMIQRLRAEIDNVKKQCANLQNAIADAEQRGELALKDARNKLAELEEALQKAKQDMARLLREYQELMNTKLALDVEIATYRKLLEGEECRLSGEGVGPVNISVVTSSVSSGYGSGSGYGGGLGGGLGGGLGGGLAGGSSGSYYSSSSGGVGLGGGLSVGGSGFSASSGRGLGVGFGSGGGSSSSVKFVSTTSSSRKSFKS
The target of test [3] is proteins of HEK293T cells transiently overexpressing caspase-6 (Homo sapiens, UniProt Q9Y490). Conditions: exp_ref Probe; protein TLN1 (Q9Y490); analysis C6.
Chain of proteins of HEK293T cells transiently overexpressing caspase-6 (Homo sapiens, UniProt Q9Y490) (Q9Y490 whole entry): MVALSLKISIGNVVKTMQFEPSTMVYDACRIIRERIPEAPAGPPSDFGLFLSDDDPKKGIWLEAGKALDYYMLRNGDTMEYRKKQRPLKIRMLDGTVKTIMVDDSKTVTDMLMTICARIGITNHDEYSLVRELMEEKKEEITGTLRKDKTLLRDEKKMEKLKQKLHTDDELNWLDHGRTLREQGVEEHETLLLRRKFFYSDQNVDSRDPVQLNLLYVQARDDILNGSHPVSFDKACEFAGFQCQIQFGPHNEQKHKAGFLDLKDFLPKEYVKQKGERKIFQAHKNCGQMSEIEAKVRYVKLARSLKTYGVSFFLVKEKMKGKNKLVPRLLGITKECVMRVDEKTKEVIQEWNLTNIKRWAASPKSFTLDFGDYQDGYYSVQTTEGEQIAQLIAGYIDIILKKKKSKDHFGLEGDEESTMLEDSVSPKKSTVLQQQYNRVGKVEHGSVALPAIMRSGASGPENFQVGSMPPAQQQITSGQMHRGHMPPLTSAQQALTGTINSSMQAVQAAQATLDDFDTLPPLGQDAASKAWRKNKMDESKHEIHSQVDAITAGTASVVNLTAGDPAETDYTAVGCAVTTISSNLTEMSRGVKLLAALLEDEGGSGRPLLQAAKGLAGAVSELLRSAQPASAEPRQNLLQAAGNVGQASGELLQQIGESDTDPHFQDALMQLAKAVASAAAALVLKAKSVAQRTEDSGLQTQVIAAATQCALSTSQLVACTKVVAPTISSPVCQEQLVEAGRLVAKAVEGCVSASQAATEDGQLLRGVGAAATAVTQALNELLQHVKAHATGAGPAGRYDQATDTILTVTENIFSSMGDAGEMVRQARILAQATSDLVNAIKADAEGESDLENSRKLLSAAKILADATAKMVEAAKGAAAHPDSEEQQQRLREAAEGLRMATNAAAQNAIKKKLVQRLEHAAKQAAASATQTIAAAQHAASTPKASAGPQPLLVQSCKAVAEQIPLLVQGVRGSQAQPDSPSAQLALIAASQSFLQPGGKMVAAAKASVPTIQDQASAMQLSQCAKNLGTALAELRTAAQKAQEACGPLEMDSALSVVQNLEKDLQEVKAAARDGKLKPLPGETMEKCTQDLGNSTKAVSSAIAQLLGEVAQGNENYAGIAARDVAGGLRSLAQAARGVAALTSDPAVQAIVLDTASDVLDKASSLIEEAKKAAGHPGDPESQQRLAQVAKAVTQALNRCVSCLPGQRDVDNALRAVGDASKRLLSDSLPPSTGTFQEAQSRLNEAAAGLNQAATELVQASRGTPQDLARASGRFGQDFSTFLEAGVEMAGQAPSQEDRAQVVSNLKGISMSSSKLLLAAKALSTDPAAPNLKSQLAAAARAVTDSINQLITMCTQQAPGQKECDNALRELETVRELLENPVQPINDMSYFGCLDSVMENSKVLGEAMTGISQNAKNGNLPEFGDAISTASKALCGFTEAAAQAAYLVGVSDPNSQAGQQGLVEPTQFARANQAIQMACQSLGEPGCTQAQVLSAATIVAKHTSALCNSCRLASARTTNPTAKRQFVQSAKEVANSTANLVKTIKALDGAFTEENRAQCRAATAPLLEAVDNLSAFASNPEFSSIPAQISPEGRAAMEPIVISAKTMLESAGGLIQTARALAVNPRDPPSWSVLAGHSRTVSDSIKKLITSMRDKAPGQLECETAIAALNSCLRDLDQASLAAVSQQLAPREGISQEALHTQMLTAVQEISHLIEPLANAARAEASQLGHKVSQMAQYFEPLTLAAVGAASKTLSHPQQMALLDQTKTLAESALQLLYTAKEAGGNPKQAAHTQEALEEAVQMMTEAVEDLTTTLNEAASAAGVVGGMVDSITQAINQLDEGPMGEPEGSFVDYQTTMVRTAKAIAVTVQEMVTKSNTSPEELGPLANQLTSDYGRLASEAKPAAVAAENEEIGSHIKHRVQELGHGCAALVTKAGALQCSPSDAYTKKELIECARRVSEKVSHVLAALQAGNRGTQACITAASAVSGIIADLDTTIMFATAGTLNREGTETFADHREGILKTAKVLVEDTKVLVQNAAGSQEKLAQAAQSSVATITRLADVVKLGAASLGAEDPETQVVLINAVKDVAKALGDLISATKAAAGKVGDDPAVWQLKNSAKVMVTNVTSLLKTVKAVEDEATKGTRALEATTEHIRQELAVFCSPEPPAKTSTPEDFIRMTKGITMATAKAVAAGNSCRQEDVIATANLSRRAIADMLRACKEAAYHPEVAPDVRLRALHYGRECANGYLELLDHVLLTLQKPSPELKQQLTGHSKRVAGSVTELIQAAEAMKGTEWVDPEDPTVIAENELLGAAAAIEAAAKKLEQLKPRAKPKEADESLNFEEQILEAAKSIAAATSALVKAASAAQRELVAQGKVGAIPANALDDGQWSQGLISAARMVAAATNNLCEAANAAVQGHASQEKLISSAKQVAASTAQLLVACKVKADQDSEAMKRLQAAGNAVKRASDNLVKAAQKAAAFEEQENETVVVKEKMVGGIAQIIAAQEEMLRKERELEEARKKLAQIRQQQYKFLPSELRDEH
Test [4] deals with T2, proteins of HEK293T cells transiently overexpressing caspase-6 (Homo sapiens, UniProt P55060).
T2 sequence (P55060 1-971): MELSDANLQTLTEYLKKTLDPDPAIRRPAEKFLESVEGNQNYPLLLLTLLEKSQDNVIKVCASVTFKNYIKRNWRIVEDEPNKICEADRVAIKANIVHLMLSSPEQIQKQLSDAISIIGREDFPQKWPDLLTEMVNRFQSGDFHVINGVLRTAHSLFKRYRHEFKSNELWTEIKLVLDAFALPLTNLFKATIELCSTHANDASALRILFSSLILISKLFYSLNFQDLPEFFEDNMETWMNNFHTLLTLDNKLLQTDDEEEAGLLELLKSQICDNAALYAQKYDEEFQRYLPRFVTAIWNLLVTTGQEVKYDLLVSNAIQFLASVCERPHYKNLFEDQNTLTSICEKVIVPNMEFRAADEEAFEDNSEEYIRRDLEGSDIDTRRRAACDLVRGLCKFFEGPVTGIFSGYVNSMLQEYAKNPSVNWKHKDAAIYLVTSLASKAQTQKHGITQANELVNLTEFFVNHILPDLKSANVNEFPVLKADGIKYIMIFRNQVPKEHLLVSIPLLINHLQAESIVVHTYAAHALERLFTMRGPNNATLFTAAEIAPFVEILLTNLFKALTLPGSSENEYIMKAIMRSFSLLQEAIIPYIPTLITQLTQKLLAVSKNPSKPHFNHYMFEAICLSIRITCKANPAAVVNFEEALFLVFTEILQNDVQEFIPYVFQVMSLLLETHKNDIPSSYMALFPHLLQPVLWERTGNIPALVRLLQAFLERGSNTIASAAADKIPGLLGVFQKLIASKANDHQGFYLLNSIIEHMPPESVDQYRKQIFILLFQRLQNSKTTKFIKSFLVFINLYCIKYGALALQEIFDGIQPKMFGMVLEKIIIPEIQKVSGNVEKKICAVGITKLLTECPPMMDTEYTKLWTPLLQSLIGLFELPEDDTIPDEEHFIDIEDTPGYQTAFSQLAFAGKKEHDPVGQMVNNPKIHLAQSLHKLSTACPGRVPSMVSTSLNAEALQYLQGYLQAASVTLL
As to conditions: protein CSE1L (P55060).

For test [5], the target named is proteins of HEK293T cells transiently overexpressing caspase-6 (Homo sapiens, UniProt P07195).
Chain of proteins of HEK293T cells transiently overexpressing caspase-6 (Homo sapiens, UniProt P07195) (P07195 whole entry): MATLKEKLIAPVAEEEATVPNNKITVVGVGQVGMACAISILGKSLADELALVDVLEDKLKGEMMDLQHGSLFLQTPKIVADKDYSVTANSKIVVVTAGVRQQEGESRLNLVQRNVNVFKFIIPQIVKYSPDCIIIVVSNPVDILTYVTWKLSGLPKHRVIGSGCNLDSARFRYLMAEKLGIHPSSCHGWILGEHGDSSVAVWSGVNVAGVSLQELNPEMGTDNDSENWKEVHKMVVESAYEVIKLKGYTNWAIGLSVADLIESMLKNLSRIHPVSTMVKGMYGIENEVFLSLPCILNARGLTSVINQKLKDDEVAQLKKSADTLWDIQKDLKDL
The target of test [6] is proteins of HEK293T cells transiently overexpressing caspase-6 (Homo sapiens, UniProt P25786). As to conditions: Probe; protein PSMA1 P25786.
The target in test [7] is proteins of HEK293T cells transiently overexpressing caspase-6 (Homo sapiens, UniProt P51991). Conditions: exp_ref Probe; protein HNRNPA3 (P51991); analysis C6.
Chain of proteins of HEK293T cells transiently overexpressing caspase-6 (Homo sapiens, UniProt P51991) (P51991 whole entry): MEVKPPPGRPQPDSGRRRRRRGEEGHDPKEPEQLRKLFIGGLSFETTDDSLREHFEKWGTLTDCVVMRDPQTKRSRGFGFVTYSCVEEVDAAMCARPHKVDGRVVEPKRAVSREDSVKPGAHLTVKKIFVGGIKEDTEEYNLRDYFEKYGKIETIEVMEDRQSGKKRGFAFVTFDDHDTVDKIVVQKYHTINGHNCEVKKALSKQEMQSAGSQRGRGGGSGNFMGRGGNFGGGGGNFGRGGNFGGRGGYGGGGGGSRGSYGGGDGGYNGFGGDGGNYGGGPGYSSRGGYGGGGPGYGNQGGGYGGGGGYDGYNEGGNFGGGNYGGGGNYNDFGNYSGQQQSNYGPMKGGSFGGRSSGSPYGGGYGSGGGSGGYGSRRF
Test [8] addresses T3, proteins of HEK293T cells transiently overexpressing caspase-6 (Homo sapiens, UniProt P78417).
T3 sequence (P78417 1-241): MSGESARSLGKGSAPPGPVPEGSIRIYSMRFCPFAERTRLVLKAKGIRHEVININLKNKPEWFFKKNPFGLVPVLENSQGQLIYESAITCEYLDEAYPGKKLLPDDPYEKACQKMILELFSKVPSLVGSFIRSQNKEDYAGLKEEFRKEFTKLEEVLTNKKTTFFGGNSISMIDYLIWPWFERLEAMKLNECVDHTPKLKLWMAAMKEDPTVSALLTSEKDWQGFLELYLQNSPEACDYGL
As to conditions: protein GSTO1 (P78417).

For test [9], the target named is proteins of HEK293T cells transiently overexpressing caspase-6 (Homo sapiens, UniProt P52292). As to conditions: exp_ref Probe; protein KPNA2 (P52292); analysis C6.
The target in test [10] is proteins of HEK293T cells transiently overexpressing caspase-6 (Homo sapiens, UniProt Q07812). Conditions: Probe; protein BAX Q07812.
Chain of proteins of HEK293T cells transiently overexpressing caspase-6 (Homo sapiens, UniProt Q07812) (Q07812 whole entry): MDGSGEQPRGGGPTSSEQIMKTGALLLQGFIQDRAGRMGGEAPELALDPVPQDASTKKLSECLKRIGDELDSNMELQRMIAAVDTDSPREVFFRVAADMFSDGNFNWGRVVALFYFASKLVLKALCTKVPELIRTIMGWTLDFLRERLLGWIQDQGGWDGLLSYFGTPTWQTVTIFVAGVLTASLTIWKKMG
For test [11], the target named is proteins of HEK293T cells transiently overexpressing caspase-6 (Homo sapiens, UniProt P54886). Conditions: exp_ref Probe; protein ALDH18A1 (P54886); analysis C6.
Chain of proteins of HEK293T cells transiently overexpressing caspase-6 (Homo sapiens, UniProt P54886) (P54886 whole entry): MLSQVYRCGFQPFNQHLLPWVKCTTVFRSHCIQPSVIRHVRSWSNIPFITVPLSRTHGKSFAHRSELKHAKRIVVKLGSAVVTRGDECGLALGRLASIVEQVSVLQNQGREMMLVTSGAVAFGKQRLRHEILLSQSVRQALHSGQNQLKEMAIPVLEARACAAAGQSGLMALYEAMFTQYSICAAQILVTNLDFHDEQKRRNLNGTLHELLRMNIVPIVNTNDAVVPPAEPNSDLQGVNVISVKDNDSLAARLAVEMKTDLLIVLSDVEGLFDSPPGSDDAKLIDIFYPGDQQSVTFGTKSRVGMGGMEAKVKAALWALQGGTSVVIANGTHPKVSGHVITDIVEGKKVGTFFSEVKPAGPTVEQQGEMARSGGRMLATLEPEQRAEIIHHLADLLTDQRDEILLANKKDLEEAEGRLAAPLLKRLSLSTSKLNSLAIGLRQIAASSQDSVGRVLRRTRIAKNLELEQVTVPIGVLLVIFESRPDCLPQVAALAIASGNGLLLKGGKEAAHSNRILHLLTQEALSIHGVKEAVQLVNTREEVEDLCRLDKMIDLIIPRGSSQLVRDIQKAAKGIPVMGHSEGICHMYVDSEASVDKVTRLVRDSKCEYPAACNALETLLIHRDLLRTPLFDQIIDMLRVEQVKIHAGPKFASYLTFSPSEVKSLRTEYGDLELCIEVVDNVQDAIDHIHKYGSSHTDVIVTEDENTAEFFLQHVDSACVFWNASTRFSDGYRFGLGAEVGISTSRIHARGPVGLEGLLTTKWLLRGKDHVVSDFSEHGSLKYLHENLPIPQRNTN

As to `C#CCOc1ccc([C@@H]2C[C@@H](C(=O)Nc3ccc(OC(F)(F)F)cc3)CN(S(=O)(=O)C=C)C2)cc1` (relative stereo) [13-t], the enrich.exp.med in test [1] (exp_ref Probe, analysis C6) was 0.4691; in test [2], -6.8; in test [3] it was 0.6042; in test [4] (exp_ref Probe, analysis C6) it was 1.237; in [5] (Probe, protein LDHB P07195), -0.537; in test [6], -2.151. The enrich.exp.med is recorded as 0.2112 in test [7]; 0.9115 in [8] (exp_ref Probe, analysis C6); 0.5159 in [9]; -2.1832 in [10]; 0.3406 in test [11]. In addition, the enrich.exp.med.lin in [1] was 1.384; in [4], 2.357; in [5] (protein LDHB (P07195)) it was 0.6892; in [8], 1.881. The enrich.exp.med.log2 in [1] is 0.4691; in test [4] it was 1.237; in test [5] (protein LDHB (P07195)), -0.537; in test [8] it was 0.9115.

(Values after publication PMC10176470, “Engaging a Non-catalytic Cysteine Residue Drives Potent and Selective Inhibition of Caspase-6” (Journal of the American Chemical Society, 2023).)
